According to US20140171357A1, “VANCOMYCIN DERIVATIVES” (Seachald Pharmaceuticals, Inc., priority 2011, published 2014):
Converted amounts (≈) assume the structure as drawn.

Legend:
[1] = tested on: VanB vancomycin-resistant E. faecalis (12); assay: MIC broth microdilution, VanB E. faecalis; conditions: E. faecalis, VanB (12)
[2] = tested on: S. aureus ATCC 25923; assay: Neutropenic murine thigh infection model; conditions: for AUCc-t (AUC difference between control and treated animals): 24 h time kill
[3] = tested on: vancomycin-susceptible E. faecium (21); assay: MIC broth microdilution, vancomycin-susceptible E. faecium; conditions: E. faecium, vancomycin-susceptible (21)
[4] = tested on: vancomycin-resistant S. aureus (VRSA, 6); assay: MIC broth microdilution, VRSA
[5] = tested on: methicillin-resistant S. aureus (MRSA, 22); assay: MIC broth microdilution, MRSA; conditions: MRSA (22)
[6] = tested on: VanC enterococci (22); assay: MIC broth microdilution, vanC-carrying enterococci; conditions: VanC enterococci (22)
[7] = tested on: VanB vancomycin-resistant E. faecium (10); assay: MIC broth microdilution, VanB E. faecium; conditions: E. faecium, VanB (10)
[8] = tested on: vancomycin-susceptible E. faecalis (23); assay: MIC broth microdilution, vancomycin-susceptible E. faecalis; conditions: E. faecalis, vancomycin-susceptible (23)
[9] = tested on: β-hemolytic streptococci (23); assay: MIC broth microdilution, β-hemolytic streptococci; conditions: β-hemolytic streptococci (23); MHB + lysed horse blood
[10] = tested on: S. pneumoniae (22); assay: MIC broth microdilution, S. pneumoniae; conditions: S. pneumoniae (22); MHB + lysed horse blood
[11] = tested on: vancomycin-intermediate S. aureus (VISA, 5); assay: MIC broth microdilution, VISA
[12] = tested on: Staphylococcus aureus (65 strains); assay: MIC broth microdilution, S. aureus all isolates; conditions: S. aureus (65), all resistance subsets
[13] = tested on: VanA vancomycin-resistant E. faecalis (11); assay: MIC broth microdilution, VanA E. faecalis; conditions: for MIC 50% / MIC 90%: E. faecalis, VanA (11)
[14] = tested on: heterogeneous VISA (hVISA, 10); assay: MIC broth microdilution, hVISA
[15] = tested on: methicillin-susceptible S. aureus (MSSA, 22); assay: MIC broth microdilution, MSSA; conditions: MSSA (22)
[16] = tested on: Staphylococcus epidermidis (43 strains); assay: MIC broth microdilution, S. epidermidis; conditions: S. epidermidis (43)
[17] = tested on: VanA vancomycin-resistant E. faecium (10); assay: MIC broth microdilution, VanA E. faecium; conditions: E. faecium, VanA (10)
[18] = 1 mg/kg single intraperitoneal dose
[19] = 4 mg/kg single intraperitoneal dose
[20] = 16 mg/kg single intraperitoneal dose

Structure (SMILES) | MIC 50% [1] [µg/mL] | MIC 90% [1] [µg/mL] | Max Kill (maximum decrease from initial infection level) [2, 18] [Log10 CFU/thigh] | AUCc-t (AUC difference between control and treated animals) [2, 18] | Max Kill (maximum decrease from initial infection level) [2, 19] [Log10 CFU/thigh] | AUCc-t (AUC difference between control and treated animals) [2, 19] | Max Kill (maximum decrease from initial infection level) [2, 20] [Log10 CFU/thigh] | AUCc-t (AUC difference between control and treated animals) [2, 20] | MIC 50% [3] [µg/mL] | MIC 90% [3] [µg/mL] | MIC 50% [4] [µg/mL] | MIC 50% [5] [µg/mL] | MIC 90% [5] [µg/mL] | MIC 50% [6] [µg/mL] | MIC 90% [6] [µg/mL] | MIC 50% [7] [µg/mL] | MIC 90% [7] [µg/mL] | MIC 50% [8] [µg/mL] | MIC 90% [8] [µg/mL] | MIC 50% [9] [µg/mL] | also measured
CNC(CC(C)C)C(=O)NC1C(=O)NC(CC(N)=O)C(=O)NC2C(=O)NC3C(=O)NC(C(=O)NC(C(=O)O)c4cc(O)c(CNCCOCCOCCOCCN(C)C)c(O)c4-c4cc3ccc4O)C(O)c3ccc(c(Cl)c3)Oc3cc2cc(c3OC2OC(CO)C(O)C(O)C2OC2CC(C)(NCc3ccc(-c4ccc(Cl)cc4)cc3)C(O)C(C)O2)Oc2ccc(cc2Cl)C1O (centres unmarked) [Compound 14] | 0.25 (≈ 0.133 µM) | 0.25 (≈ 0.133 µM) | 0.83 | 11.4 (Log10 CFU/thigh)/hr | 0.19 | 19.4 (Log10 CFU/thigh)/hr | 0.03 | 36.1 (Log10 CFU/thigh)/hr | 0.12 (≈ 0.0638 µM) | 0.12 (≈ 0.0638 µM) | 8 (≈ 4.25 µM) | 0.12 (≈ 0.0638 µM) | 0.12 (≈ 0.0638 µM) | 0.25 (≈ 0.133 µM) | 0.5 (≈ 0.266 µM) | 0.12 (≈ 0.0638 µM) | 0.12 (≈ 0.0638 µM) | 0.25 (≈ 0.133 µM) | 0.25 (≈ 0.133 µM) | 0.06 | MIC 90% [9]: 0.06 µg/mL; MIC 50% [10]: 0.06 µg/mL; MIC 90% [10]: 0.12 µg/mL; MIC 50% [11]: 0.5 µg/mL (≈ 0.266 µM); MIC 50% [12]: 0.12 µg/mL (≈ 0.0638 µM); MIC 90% [12]: 0.5 µg/mL (≈ 0.266 µM); MIC 50% [13]: 8 µg/mL (≈ 4.25 µM); MIC 90% [13]: 16 µg/mL (≈ 8.5 µM); MIC 50% [14]: 0.12 µg/mL (≈ 0.0638 µM); MIC 90% [14]: 0.12 µg/mL (≈ 0.0638 µM); MIC 50% [15]: 0.12 µg/mL (≈ 0.0638 µM); MIC 90% [15]: 0.25 µg/mL (≈ 0.133 µM); MIC 50% [16]: 0.12 µg/mL (≈ 0.0638 µM); MIC 90% [16]: 0.12 µg/mL (≈ 0.0638 µM); MIC 50% [17]: 2 µg/mL (≈ 1.06 µM); MIC 90% [17]: 4 µg/mL (≈ 2.13 µM)
CNC(CC(C)C)C(=O)NC1C(=O)NC(CC(N)=O)C(=O)NC2C(=O)NC3C(=O)NC(C(=O)NC(C(=O)NCCOCCOCCN)c4cc(O)cc(O)c4-c4cc3ccc4O)C(O)c3ccc(c(Cl)c3)Oc3cc2cc(c3OC2OC(CO)C(O)C(O)C2OC2CC(C)(NCc3ccc(OCc4ccc(Cl)c(Cl)c4)cc3)C(O)C(C)O2)Oc2ccc(cc2Cl)C1O (centres unmarked) [Compound 27] | 0.12 (≈ 0.0651 µM) | 0.12 (≈ 0.0651 µM) | 0.45 | 19.8 (Log10 CFU/thigh)/hr | −0.008 | 18.8 (Log10 CFU/thigh)/hr | −0.35 | 36.9 (Log10 CFU/thigh)/hr | 0.03 (≈ 0.0163 µM) | 0.06 (≈ 0.0325 µM) | 2 (≈ 1.08 µM) | 0.06 (≈ 0.0325 µM) | 0.06 (≈ 0.0325 µM) | 0.06 (≈ 0.0325 µM) | 0.25 (≈ 0.136 µM) | 0.03 (≈ 0.0163 µM) | 0.03 (≈ 0.0163 µM) | 0.12 (≈ 0.0651 µM) | 0.12 (≈ 0.0651 µM) | 0.06 | MIC 90% [9]: 0.12 µg/mL; MIC 50% [10]: 0.03 µg/mL; MIC 90% [10]: 0.06 µg/mL; MIC 50% [11]: 0.12 µg/mL (≈ 0.0651 µM); MIC 50% [12]: 0.06 µg/mL (≈ 0.0325 µM); MIC 90% [12]: 0.25 µg/mL (≈ 0.136 µM); MIC 50% [13]: 2 µg/mL (≈ 1.08 µM); MIC 90% [13]: 2 µg/mL (≈ 1.08 µM); fold higher MIC50/MIC90 against VanA-type E. faecalis compared with wildtype (susceptible) strains ([13]; VanA vs wildtype E. faecalis): 16 fold; concentration inhibiting all strains ([13]; VanA-type E. faecalis): ≤ 2 µg/mL; MIC 50% [14]: 0.06 µg/mL (≈ 0.0325 µM); MIC 90% [14]: 0.06 µg/mL (≈ 0.0325 µM); MIC 50% [15]: 0.06 µg/mL (≈ 0.0325 µM); MIC 90% [15]: 0.06 µg/mL (≈ 0.0325 µM); MIC 50% [16]: 0.03 µg/mL (≈ 0.0163 µM); MIC 90% [16]: 0.03 µg/mL (≈ 0.0163 µM); MIC 50% [17]: 0.5 µg/mL (≈ 0.271 µM); MIC 90% [17]: 1 µg/mL (≈ 0.542 µM)
